# Source: the supplement of paper PMC11208160
# Experiment: recombinant barcode read abundance after kanamycin selection (control-corrected) (log10(CPM+1)); higher = more efficient recombination; sequences stand for … in AGTGCAGAGAAAATCGGCCAGTTTTCTCTGCCTGCAGTCCGCATGCCGT…ATTTATGCAGCGGACTGCCTTTCTCCCAAAGTGATAAACCGGACAGTATCATGGACCGGTTTTCCCGGTAATCCGTATTTGCAAGGTTGGTTTCACT; site = the 11-nt target
# How it was run: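 Recombination efficiency in this pooled E. coli screen uses counts per million of barcodes at recombinant junctions, averaged and corrected against the control. The reported form is log10(CPM+1). Two replicates were plated on chloramphenicol/ampicillin LB agar as control and two on chloramphenicol/ampicillin/kanamycin with 0.1 mM IPTG.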
row,Sequence,recombinant barcode read abundance (log10)
1,"GCGCGACCTTGGGTTCTAACCTGTTGCTTAA [GCGCGACCTAA_LTGcore_CT_RTGcore_TT] (site GCGCGACCTAA) (LTG core: CT, RTG core: TT)",0.166
2,"GCGCGACCTTGGGTTCTAACCTGTTGCTTAT [GCGCGACCTAA_LTGcore_CT_RTGcore_AT] (site GCGCGACCTAA) (LTG core: CT, RTG core: AT)",0.103
3,"GCGCGACCTTGGGTTCTAACCTGTTGCTTCA [GCGCGACCTAA_LTGcore_CT_RTGcore_TG] (site GCGCGACCTAA) (LTG core: CT, RTG core: TG)",0.481
4,"GCGCGACCTTGGGTTCTAACCTGTTGCTTCG [GCGCGACCTAA_LTGcore_CT_RTGcore_CG] (site GCGCGACCTAA) (LTG core: CT, RTG core: CG)",0.116
5,"GCGCGACCTTGGGTTCTAACCTGTTGCTTTT [GCGCGACCTAA_LTGcore_CT_RTGcore_AA] (site GCGCGACCTAA) (LTG core: CT, RTG core: AA)",0.0792
6,"GCGCGACTCTGGGTTCTAACCTGTTGCTTAG [GCGCGACCTAA_LTGcore_TC_RTGcore_CT] (site GCGCGACCTAA) (LTG core: TC, RTG core: CT)",0
7,"GCGCGACTGTGGGTTCTAACCTGTTGCTTCA [GCGCGACCTAA_LTGcore_TG_RTGcore_TG] (site GCGCGACCTAA) (LTG core: TG, RTG core: TG)",0.0758
8,"GCGCGACTTTGGGTTCTAACCTGTTGCTTAG [GCGCGACCTAA_LTGcore_TT_RTGcore_CT] (site GCGCGACCTAA) (LTG core: TT, RTG core: CT)",0.109
9,"GCGGGACATTGGGTTCTAACCTGTTGCCTAG [GCGGGACCTAG_LTGcore_AT_RTGcore_CT] (site GCGGGACCTAG) (LTG core: AT, RTG core: CT)",0.17
10,"GCGGGACCATGGGTTCTAACCTGTTGCCTTG [GCGGGACCTAG_LTGcore_CA_RTGcore_CA] (site GCGGGACCTAG) (LTG core: CA, RTG core: CA)",0.182
11,"GCGGGACCCTGGGTTCTAACCTGTTGCCTAG [GCGGGACCTAG_LTGcore_CC_RTGcore_CT] (site GCGGGACCTAG) (LTG core: CC, RTG core: CT)",1.21
12,"GCGGGACCGTGGGTTCTAACCTGTTGCCTAG [GCGGGACCTAG_LTGcore_CG_RTGcore_CT] (site GCGGGACCTAG) (LTG core: CG, RTG core: CT)",0.76
13,"GCGGGACCTTGGGTTCTAACCTGTTGCCTGC [GCGGGACCTAG_LTGcore_CT_RTGcore_GC] (site GCGGGACCTAG) (LTG core: CT, RTG core: GC)",1.08
14,"GCGGGACCTTGGGTTCTAACCTGTTGCCTTA [GCGGGACCTAG_LTGcore_CT_RTGcore_TA] (site GCGGGACCTAG) (LTG core: CT, RTG core: TA)",1.18
15,"GCGGGACCTTGGGTTCTAACCTGTTGCCTTC [GCGGGACCTAG_LTGcore_CT_RTGcore_GA] (site GCGGGACCTAG) (LTG core: CT, RTG core: GA)",1.19
16,"GCGGGACGTTGGGTTCTAACCTGTTGCCTAC [GCGGGACCTAG_LTGcore_GT_RTGcore_GT] (site GCGGGACCTAG) (LTG core: GT, RTG core: GT)",0.163
17,"GCGGGACTTTGGGTTCTAACCTGTTGCCTAG [GCGGGACCTAG_LTGcore_TT_RTGcore_CT] (site GCGGGACCTAG) (LTG core: TT, RTG core: CT)",0.13

row,Sequence,recombinant barcode read abundance (log10)
1,"GGACACCATTGGGTTCTAACCTGTTGCCTAG [GGACACCCTAG_LTGcore_AT_RTGcore_CT] (site GGACACCCTAG) (LTG core: AT, RTG core: CT)",0.15
2,"GGACACCATTGGGTTCTAACCTGTTGCCTAT [GGACACCCTAG_LTGcore_AT_RTGcore_AT] (site GGACACCCTAG) (LTG core: AT, RTG core: AT)",0.145
3,"GGACACCCTTGGGTTCTAACCTGTTGCCTAA [GGACACCCTAG_LTGcore_CT_RTGcore_TT] (site GGACACCCTAG) (LTG core: CT, RTG core: TT)",1.19
4,"GGACACCCTTGGGTTCTAACCTGTTGCCTCC [GGACACCCTAG_LTGcore_CT_RTGcore_GG] (site GGACACCCTAG) (LTG core: CT, RTG core: GG)",0.904
5,"GGACACCCTTGGGTTCTAACCTGTTGCCTCT [GGACACCCTAG_LTGcore_CT_RTGcore_AG] (site GGACACCCTAG) (LTG core: CT, RTG core: AG)",0.545
6,"GGACACCCTTGGGTTCTAACCTGTTGCCTGG [GGACACCCTAG_LTGcore_CT_RTGcore_CC] (site GGACACCCTAG) (LTG core: CT, RTG core: CC)",0.503
7,"GGACACCCTTGGGTTCTAACCTGTTGCCTTA [GGACACCCTAG_LTGcore_CT_RTGcore_TA] (site GGACACCCTAG) (LTG core: CT, RTG core: TA)",1.36
8,"GGACACCCTTGGGTTCTAACCTGTTGCCTTT [GGACACCCTAG_LTGcore_CT_RTGcore_AA] (site GGACACCCTAG) (LTG core: CT, RTG core: AA)",1.04
9,"GGACACCGCTGGGTTCTAACCTGTTGCCTGC [GGACACCCTAG_LTGcore_GC_RTGcore_GC] (site GGACACCCTAG) (LTG core: GC, RTG core: GC)",0.0534
10,"GGACACCGGTGGGTTCTAACCTGTTGCCTCC [GGACACCCTAG_LTGcore_GG_RTGcore_GG] (site GGACACCCTAG) (LTG core: GG, RTG core: GG)",0.0801
11,"GGACACCGTTGGGTTCTAACCTGTTGCCTAC [GGACACCCTAG_LTGcore_GT_RTGcore_GT] (site GGACACCCTAG) (LTG core: GT, RTG core: GT)",0.944
12,"GGACACCTATGGGTTCTAACCTGTTGCCTAG [GGACACCCTAG_LTGcore_TA_RTGcore_CT] (site GGACACCCTAG) (LTG core: TA, RTG core: CT)",0.094
13,"GGACACCTATGGGTTCTAACCTGTTGCCTTA [GGACACCCTAG_LTGcore_TA_RTGcore_TA] (site GGACACCCTAG) (LTG core: TA, RTG core: TA)",0
14,"GGCTCCCAATGGGTTCTAACCTGTTGCGGTT [GGCTCCCCTCC_LTGcore_AA_RTGcore_AA] (site GGCTCCCCTCC) (LTG core: AA, RTG core: AA)",0.102
15,"GGCTCCCCATGGGTTCTAACCTGTTGCGGAG [GGCTCCCCTCC_LTGcore_CA_RTGcore_CT] (site GGCTCCCCTCC) (LTG core: CA, RTG core: CT)",0.0917
16,"GGCTCCCCTTGGGTTCTAACCTGTTGCGGAT [GGCTCCCCTCC_LTGcore_CT_RTGcore_AT] (site GGCTCCCCTCC) (LTG core: CT, RTG core: AT)",0.0958
17,"GGCTCCCCTTGGGTTCTAACCTGTTGCGGCC [GGCTCCCCTCC_LTGcore_CT_RTGcore_GG] (site GGCTCCCCTCC) (LTG core: CT, RTG core: GG)",0.131
